Here are results for five compounds from patent US12358951.

Like-named read-outs stand apart in the source and are kept apart here.

For the series the following is noted: amide bond, THF.

As for `CCCC[C@H]1C(=O)N(C)[C@@H](CC(C)C)C(=O)N[C@@H](C2CCCCC2)C(=O)N[C@@H](CNC(=O)OCc2ccccc2)C(=O)N[C@@H](COCCCNC(=O)OC(C)(C)C)C(=O)N[C@H](C)CN1CC1CC1`, for the setting “from CCCC[C@@H](C(=O)N(C)[C@@H](CC(C)C)C(=O)N[C@H](C(=O)N[C@@H](CNC(=O)OCc1ccccc1)C(=O)O)C1CCCCC1)N(CC1CC1)C[C@@H](C)NC(=O)[C@@H](N)COCCCNC(=O)OC(C)(C)C, HATU/DIPEA, 1.14 mM, 19.0 h”, the ring closure, yield of all isomers was determined as 30%.

For the compound `CCCCCC[C@H]1OC[C@@H](C)NC(=O)[C@H](CNC(=O)OC(C)(C)C)NC(=O)[C@H](CNC(=O)OCc2ccccc2)NC(=O)[C@H](C2CCCCC2)NC(=O)[C@H](CC(C)C)N(C)C(=O)[C@@H]1C`, the ring closure, yield of all isomers (from CCCCCC[C@@H](OC[C@@H](C)N)[C@@H](C)C(=O)N(C)[C@@H](CC(C)C)C(=O)N[C@H](C(=O)N[C@@H](CNC(=O)OCc1ccccc1)C(=O)N[C@@H](CNC(=O)OC(C)(C)C)C(=O)O)C1CCCCC1, HATU/DIPEA, 1.08 mM, 25.0 °C, 16.0 h) came out at 55%.

With `CC[C@@H]1CN(CC2CCCC2)[C@@H](C)C(=O)N(C)[C@@H](CC(C)C)C(=O)N[C@@H](C2CCCCC2)C(=O)N[C@@H](CNC(=O)OCc2ccccc2)C(=O)N[C@@H]([C@H](C)OCc2ccccc2)C(=O)N1`, the ring closure, yield of all isomers (from CC[C@@H](N)CN(CC1CCCC1)[C@@H](C)C(=O)N(C)[C@@H](CC(C)C)C(=O)N[C@H](C(=O)N[C@@H](CNC(=O)OCc1ccccc1)C(=O)N[C@H](C(=O)O)[C@H](C)OCc1ccccc1)C1CCCCC1, HATU, DIPEA, 1.24 mM, 25.0 °C, 2.5 h) was determined as 45.7%.

`CCCCCCN1C[C@@H](CCF)NC(=O)[C@H]([C@H](C)OCc2ccccc2)NC(=O)[C@H](CNC(=O)OCc2ccccc2)NC(=O)[C@H](C2CCCCC2)NC(=O)[C@H](CC(C)C)N(C)C(=O)[C@@H]1C` came in with a ring closure, yield of all isomers (from CCCCCCN(C[C@H](N)CCF)[C@@H](C)C(=O)N(C)[C@@H](CC(C)C)C(=O)N[C@H](C(=O)N[C@@H](CNC(=O)OCc1ccccc1)C(=O)N[C@H](C(=O)O)[C@H](C)OCc1ccccc1)C1CCCCC1, HATU/DIPEA, 1.36 mM, 25.0 °C, 20.0 h) of 43.4%.

As to `CCCCCC[C@H]1OC[C@@H](C)NC(=O)[C@H](COC2CC3(C2)CN(C(=O)OC(C)(C)C)C3)NC(=O)[C@H](CNC(=O)OCc2ccccc2)NC(=O)[C@H](C2CCCCCC2)NC(=O)[C@H](CCC)N(C)C(=O)[C@@H]1C`, the ring closure, yield of all isomers (from CCCCCC[C@@H](OC[C@@H](C)N)[C@@H](C)C(=O)N(C)[C@@H](CCC)C(=O)N[C@H](C(=O)N[C@@H](CNC(=O)OCc1ccccc1)C(=O)N[C@@H](COC1CC2(C1)CN(C(=O)OC(C)(C)C)C2)C(=O)O)C1CCCCCC1, HATU, DIPEA, 1.35 mM, 25.0 °C, 2.5 h) was determined as 39%.
